Source: US10821079B2, “PKC activators and combinations thereof” (Cognitive Research Enterprises, Inc., priority 2011, dated 2020)

How the values were obtained:
PKC-α-RACK1 = target: T1, PKC-α-RACK1 (Homo sapiens, UniProt P17252); assay type: cell-based
T1 construct: host or cells: SH-SY5Y neuroblastoma cells
Experimental: (§1) Cells were grown in two chambered slides (Nunc, USA) at low density. For immunofluorescence staining, the cells were washed with PBS (pH 7.4) and fixed with 4% paraformaldehyde for 4 min. Following fixation, the cells were blocked and permeabilized with 5% serum and 0.3% Triton X 100 in 1×PBS for 30 min. The cells were washed three times with 1×PBS and incubated with primary antibodies for 1 hr at 1:100 dilution. The incubation slides were then washed again three times in 1×PBS and were incubated with the FITC anti-rabbit IgG and Rhodamine anti-mouse IgG for 1 hr at 1:400 dilution. The cells were further washed and treated with DAPI (4′,6-diamidino-2′-phenylindole, dihydrochloride) (Thermo Scientific, USA) to stain the nucleus. Finally, the slides were washed and mounted in Pro Long Gold antifade mounting solution (Invitrogen, USA) and were viewed under the LSM 710 Meta confocal microscope (Zeiss) at 350 nm, 490 nm, and 540 nm excitation and 470 nm, 525 nm, and 625 nm emission for DAPI, FITC, and Rhodamine respectively. Six individual fields at 63× oil lens magnification were analyzed for the mean fluorescence intensity (MFI) in each channel. The co-localization correlation generated by the ZEN software (Zeiss).
Coimmunoprecipitation was done following protocol described Besson et al. with slight modification. See Besson et al. (2002) J Biol Chem 277, 22073-22084. […]

[1] = rats; cited from earlier work
[2] = cited from earlier work
PKC-ε-RACK1 = target: T2, PKC-ε-RACK1 (Homo sapiens, UniProt Q02156); experiment: PKC-ε interaction with RACK1 (confocal colocalization, coimmunoprecipitation); assay type: cell-based; settings: 0.27 nM
T2 construct: host or cells: SH-SY5Y neuroblastoma cells
Experimental: as §1
Coimmunoprecipitation was done following protocol described Besson et al. with slight modification. See Besson et al. (2002) J Biol Chem 277, 22073-22084. […] (DSP) for 30 min at room temperature to crosslink the intracellular proteins following the manufacturer's protocol. After crosslinking the proteins, the cells were lysed in the homogenizing buffer mentioned above. For immunoprecipitation, 500 μg of protein was incubated with 4 μg of appropriate antibody and 25 μl of Protein-A Sepharose beads (Invitrogen, USA) for 3 hr at 4° C. Immunoprecipitates were rinsed three times in the homogenizing buffer and were subjected to Western blot as described earlier.
Next, cells were prepared according to the coimmunoprecipitation methods discussed above.

synaptophysin = experiment: Synaptophysin Western Blot in primary rat hippocampal neurons; assay type: cell-based; settings: ASPD + DCPLA-ME
Experimental: Cells were harvested in homogenizing buffer containing 10 mM Tris-Cl (pH 7.4), 1 mM PMSF (phenylmethylsulfonyl fluoride), 1 mM EGTA, 1 mM EDTA, 50 mM NaF, and 20 μM leupeptin and were lysed by sonication. The homogenate was centrifuged at 100,000×g for 15 min at 4° C. to obtain the cytosolic fraction (supernatant) and membrane (pellet). The pellet was resuspended in the homogenizing buffer by sonication. Protein concentration was measured using the Coomassie Plus (Bradford) Protein Assay kit (Pierce, USA). Following quantification, 20 μg of protein from each sample was subjected to SDS-PAGE analysis in 4-20% gradient Tris-Glycine gel (Invitrogen, USA). The separated protein was then transferred to nitrocellulose membrane. The membrane was blocked with BSA at room temperature for 15 min and was incubated with primary antibody over night at 4° C. After the incubation, it was washed three times with TBS-T (Tris Buffered saline-Tween 20) and further incubated with alkaline phosphatase conjugated secondary antibody (Jackson Immunoresearch Laboratories, USA) at 1:10,000 dilution for 45 min. The membrane was finally washed three times with TBS-T and developed using the 1-step NBT-BCIP substrate (Pierce, USA). Western Blot was imaged in the ImageQuant RT-ECL (GE Life Sciences, Piscataway, N.J.) and densitometric quantification was performed using the IMAL software (Blanchette Rockefeller Neurosciences Institute, Morgantown, W. Va.). For translocation assays, PKC activation was represented as the percentage of total protein in the membrane (membrane/cytosol+membrane).

[3] = system: primary human cortical neurons; experiment: Long-term culture of human primary cortical neurons (40 days); assay type: cell-based
Experimental: More specifically, human primary cortical neurons were grown in Neuronal Medium (ScienCell Cat No #1521) containing neuronal growth supplement (NGS) (Sciencell Cat No #1562).
Cells were plated on poly-l-lysine (0.001%) coated plates at a density of >10000 cells/cm2. Half of the media was replaced by new media every 3 days. DCPLA-ME or Bryostatin was dissolved in 100% ethanol and added at final concentration (100 nM for DCPLA-ME, 0.27 nM for Bryostatin). Fresh DCPLA-ME (100 nM) or Bryostatin (0.27 nM) was added every 3 days during media change. The experiments were continued for 40 days.
Human primary neurons (ScienCell Research Laboratories, USA) were thawed and plated on poly-L-lysine coated plates at a density of 10,000 cells per cm^2 and were maintained in neuronal medium (DMEM+high glucose+neuronal growth supplement, ScienCell Research Laboratories, USA) following the recommended method. Primary human neurons were then treated with either DCPLA-ME (100 nM) or bryostatin 1 (0.27 nM) for 40 days. Fresh drug was added every third day with 50% media change.

PKC-ε = PKC-ε mRNA by RT-PCR in primary rat hippocampal neurons; assay type: cell-based; settings: controls and ASPD-treated cells
Experimental: RNA was isolated from the cells using Trizol reagent (Invitrogen, USA) following the manufacturer's protocol. Briefly, 5 μg of total RNA was reverse transcribed using oligo (dT) and Superscript III (Invitrogen, USA) at 50° C. for 1 hr. Two μl of the cDNA product was amplified using primers for PKC-ε (Forward Primer—[…], Reverse primer—[…]), and β-tubulin (Forward Primer—[…], Reverse primer—[…]) (Origene, Rockville, Md.) for 25 cycles following standard PCR protocols and 55° C. annealing temperature. The PCR amplicons were analyzed in an E-Gel (Invitrogen, USA). The gel image was documented using a Fuji Image gel scanner (FLA-9000, Fuji Film) and densitometric quantification was performed using the IMAL software (Blanchette Rockefeller Neurosciences Institute, Morgantown, W. Va.). Data were represented as normalized ratio of PKC-ε OD (Optical Density) against β-tubulin OD for three independent experiments.
Primary neurons were treated with ASPD and/or DCPLA-ME. PKC-ε mRNA was quantified by RT-PCR as described above. RNA prepared from control and treated cultured primary rat hippocampal neurons were isolated and reverse transcribed. Individual cDNA was amplified for PKC-ε and β-actin. PKC-ε expression was normalized to β-actin.

T2 sequence (Q02156 whole entry): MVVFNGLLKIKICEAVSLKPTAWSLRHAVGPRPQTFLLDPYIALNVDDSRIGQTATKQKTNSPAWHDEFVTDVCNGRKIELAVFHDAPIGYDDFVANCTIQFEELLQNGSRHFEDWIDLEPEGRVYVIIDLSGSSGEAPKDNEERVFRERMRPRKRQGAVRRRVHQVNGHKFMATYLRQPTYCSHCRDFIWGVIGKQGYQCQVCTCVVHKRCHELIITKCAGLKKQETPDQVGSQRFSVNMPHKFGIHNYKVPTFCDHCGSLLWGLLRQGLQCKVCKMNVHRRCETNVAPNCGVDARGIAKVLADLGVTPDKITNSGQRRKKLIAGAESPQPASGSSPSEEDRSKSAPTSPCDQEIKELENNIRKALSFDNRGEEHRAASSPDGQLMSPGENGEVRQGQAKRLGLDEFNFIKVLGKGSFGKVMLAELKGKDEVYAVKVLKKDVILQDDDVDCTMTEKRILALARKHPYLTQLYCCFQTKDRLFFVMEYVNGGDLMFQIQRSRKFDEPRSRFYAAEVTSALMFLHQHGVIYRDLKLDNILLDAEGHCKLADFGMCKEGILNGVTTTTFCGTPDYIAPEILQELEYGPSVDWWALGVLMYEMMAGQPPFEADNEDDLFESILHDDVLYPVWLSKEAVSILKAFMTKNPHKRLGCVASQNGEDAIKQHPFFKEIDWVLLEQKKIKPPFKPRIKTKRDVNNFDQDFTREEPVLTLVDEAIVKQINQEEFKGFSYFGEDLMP

| SMILES | PKC-α-RACK1 interaction by RACK1 immunoprecipitation (in words) (PKC-α-RACK1) | colocalization correlation R (PKC-α-RACK1) | acute LD50 [1] [µg/kg] | toxicity ([2]; at 20 μg/week) | dose that may be associated with muscle pain ([2]; in vivo) | PKC-ε-RACK1 interaction by RACK1 immunoprecipitation (in words) (PKC-ε-RACK1) | colocalization correlation R (PKC-ε-RACK1; 5 min) | colocalization correlation R (PKC-ε-RACK1; 15 min) | synaptophysin expression by Western Blot (in words) (synaptophysin) | fractal dimension (neuritic branching) ([3]; 100 nM) | number of colocalized puncta of synaptophysin and PSD-95 ([3]; 100 nM) | number of synapses (in words) ([3]; 100 nM) | neurite-positive cells/field ([3]; 100 nM, 40 days) [cells/field] | expression levels of PKCε, PSD-95 and synaptophysin (in words) ([3]; compared to control or bryostatin 1-treated cells, 40 days) | PKC-ε transcript levels (in words) (PKC-ε) |
| --- | --- | --- | --- | --- | --- | --- | --- | --- | --- | --- | --- | --- | --- | --- | --- |
| CCC/C=C/C=C/C(=O)O[C@H]1/C(=C/C(=O)OC)C[C@H]2C[C@H]([C@@H](C)O)OC(=O)C[C@H](O)C[C@@H]3C[C@H](OC(C)=O)C(C)(C)C(O)(C[C@@H]4C/C(=C/C(=O)OC)C[C@H](/C=C/C(C)(C)[C@]1(O)O2)O4)O3 [Bryostatin-1] | increased at 15 min but decreased below the control level at 30 min | 0.58 | 68 | no toxicity | more than 35 μg/week | increased significantly at 5, 15, and 30 min | 0.71 | 0.72 | – | – | – | – | – | – | – |
| CCCCCC1CC1CC1CC1CCCCCCCC(=O)OC (stereo not drawn) [DCPLA-ME, methyl 8-(2-((2-pentylcyclopropyl)methyl)cyclopropyl)octanoate] | – | – | – | – | – | – | – | – | maintained the expression similar to control | 1.40±0.03 | 230 % of control | significantly increased | 360±45 | significantly higher | increased PKC-ε transcript levels |
